Test results taken from the METLIN SMRT retention time set (Domingo-Almenara et al. 2019).

Assay: gradient 5% acetonitrile 3 min, to 50% in 2 min, to 85% in 15 min, held 3 min, 100 µL/min
Conditions: column: Zorbax Extend-C18 2.1 x 50 mm; eluents: water / acetonitrile, 0.1% formic acid
In short: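 Over 3 months, pure standards in mixtures of ~100 molecules were run by HPLC coupled to a quadrupole time-of-flight mass spectrometer in positive and negative ionization mode. The column was a Zorbax Extend-C18 (2.1 × 50 mm, 1.8 μm) at 100 μL/min, eluted with water and acetonitrile each holding 0.1% formic acid, with 40 μL dead and 900 μL dwell volumes. Retention time was determined from adduct peaks chosen by software and checked manually.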

SMILES | RP-LC retention time [s]
COc1ccc(-n2c(=O)n(C)c(=O)c3cc(C(=O)NCc4ccc(F)cc4)cnc32)cc1 | 849
CC1CCCN(c2nn(CC(=O)Nc3ccccc3Cl)c(=O)c3ccccc23)C1 (stereo not drawn) | 1180
CNC(=O)C1CN(C(=O)Nc2cc(OC)cc(OC)c2)CC12CCCC2 (stereo not drawn) | 683
CC(NC(=O)C1CCCN(c2cnc3nccnc3c2)C1)c1cccnc1 (stereo not drawn) | 598
CCNC(=O)C1CCN(c2nccc3sccc23)CC1 | 558
O=C(NC1CCCC1)C1CCCN(c2ccc(=O)n(-c3cccc(F)c3)n2)C1 (stereo not drawn) | 784
CCc1noc(NC(C)=O)c1-c1ccc(C)c(S(=O)(=O)Nc2ccc(C(=O)OC)cc2)c1 | 736
Cc1ccc(-c2noc(C3CCCN3C(=O)C3CC(=O)N(c4ccc(C)c(C)c4)C3)n2)cc1 (stereo not drawn) | 1050
COc1ccccc1NC(=O)NCCCn1c(C(F)(F)F)nc2cccnc21 | 797
Cc1ccc(C)c(C(=O)N2CCC(COc3ccc(C(=O)NC(C)C)cc3)CC2)c1 | 912
CCC(=O)N1CCCC(C(=O)NC2CC2)C1 (stereo not drawn) | 567
CCCn1c(CCNC(=O)c2ccccc2F)nc2cccnc21 | 644
O=C(NCC1CCCO1)C1CCN(C(=O)c2ncn3c2COC(c2ccc(F)cc2)C3)CC1 (stereo not drawn) | 658
COc1ccc(Cn2c(=O)n(C(C)C)c(=O)c3oc4ccccc4c32)cc1 | 976
CCc1nnc(-c2ccc(S(=O)(=O)N3CCC(C)CC3)o2)o1 | 920
Cc1cc(C)cc(N2CCC(NC(=O)c3ccsc3)C2=O)c1 (stereo not drawn) | 815
COc1cccc(-c2nc(C3CCN(S(=O)(=O)c4ccc(Cl)cc4)CC3)no2)c1 | 1170
Cc1ccc(S(=O)(=O)N2CCC3(CC2)NCCN=C3NCc2cc(F)cc(F)c2)cc1 | 734
Cc1ccc(N2CC(c3noc(-c4ccc(C)c(C)c4)n3)CC2=O)cc1 (stereo not drawn) | 1150
CCc1cccc(NC(=O)Cn2c(=O)c3cc(C)nn3c3ncccc32)c1 | 767
COc1ccc(-c2nc3cnccn3c2Nc2cccc(C(=O)NCc3ccco3)c2)cc1 | 741
CCN1CCN(Cc2ccc(NC(=O)c3ccc(C)c(NC(=O)c4cncc(-c5cccs5)c4)c3)cc2C(F)(F)F)CC1 | 844
Cc1cc(S(=O)(=O)N2CCc3c(c(-c4nnc(-c5ccc(F)cc5)o4)nn3C)C2)ccc1F | 992
Cc1cc(OCC(=O)Nc2ccnn2Cc2ccco2)cc(C)c1Cl | 953
c1ccc(N2CCN(Cc3nc(-c4ccc(N5CCCCCC5)nc4)no3)CC2)nc1 | 593
Cc1ccc(N2CCN(C(=O)c3cn4cc(Cl)ccc4n3)CC2)cc1 | 830
NC(=O)c1c(NC(=O)CSc2ncnc3sc4c(c23)CCC4)sc2c1CCC2 | 1100

SMILES | RP-LC retention time [s]
Oc1cc2c(cc1O)[C@H]1c3ccccc3CN[C@@H]1CC2 | 628
CCn1c(=O)c(N2CCCC(C(=O)NCCc3c[nH]c4ccc(Cl)cc34)C2)nc2ccccc21 (stereo not drawn) | 1010
Cc1ccc2c(c1)N(Cc1ccc(F)cc1)N=C(C(=O)N1CCOCC1)S2(=O)=O | 839
COc1cccc(-n2cc(C(=O)OCCc3ccccn3)c3ccccc3c2=O)c1 | 714
O=C(Cc1ccccc1Cl)NC1CCN(c2ccc(=O)n(CC3CC3)n2)C1 (stereo not drawn) | 760
COc1cccc(Nc2nc(C)c(C(=O)Nc3cc(F)cc(F)c3)s2)c1 | 1040
CCOc1ccc(CNC(=O)c2nnn(Cc3nc(-c4cccc(C)c4)oc3C)c2C)cc1 | 1140
CN1C(=O)c2ccccc2Oc2ccc(C(=O)NCc3ccccc3Cl)cc21 | 948
COC(=O)c1ccccc1NC(=O)Cn1cnc2c(sc3nc(-c4ccccc4)ccc32)c1=O | 1110
CC(C)N1C(=O)c2cccnc2Sc2cc(NC(=O)Cc3cccc(F)c3)ccc21 | 876
CCOC(=O)C1CCN(S(=O)(=O)c2cc3n(c2)CCCNC3=O)CC1 | 652
Cn1cc(CCN2CCN(C(=O)c3ccc(Br)cc3)CC2)c2cccnc21 | 620
CCOC(=O)c1cccc(NC(=O)Cc2csc3nc(-c4ccc(C)c(C)c4)cn23)c1 | 929
CC(=O)N1CCc2[nH]c3ccc(C(=O)NCc4ccc(N5CCN(C)CC5)cc4)cc3c2C1 | 573
O=S(=O)(c1ccc(-c2noc(-c3cccc(Cl)c3)n2)cc1)N1CCCC1 | 1260
Cc1ccccc1-c1csc(Nc2ccc(Br)cn2)n1 | 1230
CCn1cc(CC(=O)NCC2CC2)c2cccnc21 | 624
Cc1ccc(Cn2c(N3CCC(C(=O)NCC(C)C)CC3)nc3ccsc3c2=O)cc1 | 920
Cc1ccc(Nc2cc(C)nc3ccnn23)cc1 | 620
Cc1c(Cl)cccc1NC(=O)C(=O)NCC(O)c1ccc(C(F)(F)F)cc1 (stereo not drawn) | 936
CCN(CC)CCNC(=O)Cn1nc(C)c2nn(-c3ccc(F)cc3)c(-n3cccc3)c2c1=O | 675
COc1ccc(-c2cc3nn(CC(=O)Nc4ccc(Cl)cc4)c(=O)n3c(C)n2)cc1 | 974
Cc1noc(C)c1S(=O)(=O)N1CCC2(CC1)CN(c1ccccc1)C2=O | 924
O=C(CN1CC=C(c2cnn(-c3ccc(F)cc3)c2)CC1)NC1CCCCC1 | 695
O=C(Nc1cnc(N2CCCC2)nc1)c1ccc(F)cc1 | 710
COCCN1C(=O)[C@H]2CN(Cc3ccc(C)cc3)C[C@H]2C1=O | 616
O=C(CSc1ncc(-c2ccccc2)[nH]1)Nc1nc(-c2ccc(C3CCCCC3)cc2)cs1 | 1420

Continued, values first:

RP-LC retention time [s] | SMILES
861 | COc1ccc(CN2C=C(C(=O)OCc3noc(-c4ccccc4C)n3)C(C)=NS2(=O)=O)cc1
630 | O=C(NC1CC1)[C@@H]1C[C@H](Oc2cccnc2)CN1C(=O)c1ccsc1
591 | O=C(NCc1ccc(N2CCOCC2)cc1)c1cn2ccccc2n1
949 | O=C(CCc1nc(CSc2nnc(-c3ccccc3)o2)no1)Nc1ccc(Cl)cc1
734 | Cc1ccc(-c2nc3cnccn3c2NCCC(=O)NC(C)c2cccs2)cc1 (stereo not drawn)
754 | COc1cccc(-n2cc(C(=O)OCc3cccnc3)c3ccccc3c2=O)c1
951 | COc1ccccc1CNC(=O)c1cn(C)nc1S(=O)(=O)N1CCC(C)CC1
576 | O=C(CSc1nnc2ccccn12)NCc1ccco1
729 | Cc1c(C2CCN(C(=O)c3cc4ccccc4[nH]3)CC2)noc1N
670 | CCn1cc(CN2CC(F)(F)C[C@H]2COc2ccncc2)c2ccccc21
1140 | CC(C)Cc1ccc(S(=O)(=O)N2CCc3c(c(-c4nnc(-c5ccccc5F)o4)nn3C)C2)cc1
824 | COCCCn1c(C)c(C)c(S(=O)(=O)c2ccccc2)c1NC(=O)C1CCCO1 (stereo not drawn)
816 | COc1ccc(N2C=C(C(=O)N3CCCC3)S(=O)(=O)c3ccc(Cl)cc32)cc1OC
807 | COCCN1C(=O)c2ccccc2C(C(=O)NCCc2ccc(OC)cc2)C12CCCC2 (stereo not drawn)
554 | COCCn1ccc2nc(C)c(C(=O)N3CCN(c4ccccn4)CC3)cc2c1=O
824 | Cc1cc2c(cc1C(=O)NCCc1c[nH]c3ccccc13)OCCCO2
1200 | Cc1ccc(Cl)cc1N1CCN(c2ccc3cc(S(=O)(=O)N4CCOCC4)ccc3n2)CC1

RP-LC retention time [s] | SMILES
627 | CCCNc1cc(N2CCC(CCC(=O)NC3CCN(C(=O)OCC)CC3)CC2)ncn1
807 | COCCc1noc(C2Cc3ccccc3N2C(=O)NCc2ccco2)n1 (stereo not drawn)
718 | Cc1cccc(NC(=O)N2CCC(OC3CCN(S(C)(=O)=O)CC3)CC2)c1C
1140 | COc1ccc(-c2nc(-c3ccc4nnn(C(C)C)c4c3)no2)cc1
614 | CCC(=O)N1CCc2c(C(=O)NCCN3CCc4ccccc4C3)cccc21
624 | Cc1cc(N2CCOCC2)nc(N2CCOCC2)n1
700 | COc1cccc(CNC(=O)C2CCN(Cc3cn(C)c4ccc(Cl)cc34)CC2)c1
701 | CC(C)S(=O)(=O)c1ccc(CC(=O)Nc2cc(-c3cccs3)nn2CCO)cc1
928 | Cc1ccc(-n2ccc(=O)c(-c3nc(-c4cccc(F)c4)no3)n2)cc1
1120 | Cc1sc(C)c(S(=O)(=O)NCc2ccc3c(c2)OCO3)c1-c1cc(C(F)(F)F)on1
695 | O=C(NCc1cccnc1Oc1ccccc1)c1cnn2cccnc12
577 | CCN1CCN(CCCNc2nc(-c3ccc(Cl)cc3)nc3ccccc23)CC1
823 | CC(C)c1cc(C2CCCN2C(=O)NC2CCCC2)on1 (stereo not drawn)
1030 | O=C(NCCC1=CCCCC1)C(=O)Nc1cccc([N+](=O)[O-])c1
634 | CN1C(=O)c2cccn2CC1C(=O)NC1CCCC1 (stereo not drawn)
698 | CN1CCN(Cc2ccc(C(=O)NCCC3=CCCCC3)cc2)C(=O)C1=O
776 | O=C1C(c2cccnc2)N(CCCc2ccccc2)C(=O)CN1c1ccccc1 (stereo not drawn)
